Data on 17 molecules can be found in patent publication US20260345555A1, “Compositions and Methods for Protecting Salivary Glands from Off-Target Radiation Damage” (University of Rochester, priority 2022, published 2026).

Assay [1] concerns senescence-associated β-galactosidase in salivary gland cell clusters (SGm). Nature of the assay: Cellular senescence assay (SPiDER-βGal) in salivary gland tissue chip, 5 days post-radiation (15 Gy); also second screen of library hits at 100 μM. For Senescence (radioprotection): key: +: radioprotection; ~: partial radioprotection; —: no radioprotection. The class given is cell-based, mouse. The note with it: for Senescence normalized mean intensity: second screen of library hits at 100 μM, 5 days post-radiation, only drugs nonsignificant compared to 0 Gy in the glutathione assay; for double hit in the drug screen: glutathione and senescence assays, 100 μM, statistically similar to 0 Gy. The text has this:
(§1) The chip platform consists of an array of near-spherical microbubble (MB) cavities formed in poly(dimethylsiloxane) (PDMS). Each chip, containing ~50 MBs, affixed within wells of a 96-well plate (FIG. 1C). Primary salivary gland cell clusters (FIG. 1A), suspended in a poly(ethylene glycol) (PEG) hydrogel precursor and MMP-degradable peptide crosslinker solution together with the photoinitiator LAP, were applied to the chip allowing the clusters to deposit into the MBs (FIG. 1D). In situ polymerization of the hydrogel was achieved using long-wave, low intensity UV light. Over time, the cell clusters aggregate and proliferate to form SGm (FIG. 1C).
For senescence, a protocol similar to the glutathione assay was followed to determine the optimal time point post-radiation for detecting a change in senescence between 0 Gy and 15 Gy, as measured by senescence-associated β-galactosidase activity.
The glutathione and senescence assays were used to screen a library of FDA-approved drugs (Selleck Chemicals) at 100 μM. Drugs were first screened using the glutathione assay according to the timeline depicted in FIG. 2A. […] Hits with the glutathione assay were then tested with the senescence assay and considered a “double hit” if senescence levels were statistically similar to levels at 0 Gy (FIG. 4, black circles).
Mice were euthanized and the submandibular glands (SMG) were removed and chopped with a razor blade for 5 min. […] Cells were centrifuged, then resuspended in HBSS with 15 mM HEPES and passed through 100 μm and 20 μm mesh filters to isolate clusters between 20-100 μm. […] The isolated clusters were combined with hydrogel precursor solution and seeded in MB array-based chips as described below.
The cell/gel precursor solution (25 μL for 48 well; 20 μL for 96 well) was pipetted onto the MB chips and incubated for 30 min, pipetting every 10 min to redisperse cells that had settled onto the surface of the chip.
A cellular senescence assay for the chips was developed by adapting the Cellular Senescence Detection Kit—SPiDER-βGal (Dojindo Molecular Technologies, Inc. SG04). Bafilomycin A1 and SPiDER-βGal stock solutions were prepared in DMSO per manufacturer directions. The assay was performed by first incubating the chips with bafilomycin A1 (1:1000 dilution in media) for 1 hr at 37 °C. […] Chips were washed twice with media and imaged using a fluorescence microscope with a Texas Red filter (Excitation: 580 nm; Emission: 604 nm).
For radioprotection experiments, SGm were cultured in MB-hydrogel chips for 4 days, then drugs were added to the chips 30 min prior to irradiation and washed out with media 30 min post-radiation treatment. […] The glutathione and senescence assays were performed at 4- and 5-days post-radiation. For assay validation experiments, at least 3 chips (N=3) were used for each drug, corresponding to >100 MBs (n>100); these values are listed in the figure description for each experiment. Mean, standard deviation, and statistics were calculated based on the number of MBs (n).
For screening of the Selleck Chemicals compound library, the same treatment scheme was used, with drugs administered at 100 μM. One MB chip (N=1) was used per compound, with ~40-50 MBs per chip […]; statistics were calculated using the number of MBs (n) and compared to 0 Gy controls.
For both the glutathione and cellular senescence assays, images were quantified in ImageJ.

The test system of assay [2] is Reduced glutathione in salivary gland cell clusters (SGm). Kind of assay: Glutathione assay in salivary gland tissue chip, 4 days post-radiation (15 Gy); also first screen of Selleck library at 100 μM. For Glutathione (radioprotection): key: +: radioprotection; ~: partial radioprotection; —: no radioprotection. The class given is cell-based, mouse. Particulars: for Glutathione normalized mean intensity: first screen of Selleck library at 100 μM.
Source text: as §1, with “A salivary gland tissue chip was leveraged for high-content drug screening to identify novel radioprotective compounds (Song Y et al., Commun Biol., 2021, 4). The” for “The”
The glutathione assay was used to measure glutathione levels at various time points post-radiation to determine the optimal time point for detecting differences between 0 Gy and 15 Gy. Based on the data, the greatest signal separation was measured at 4 days post-irradiation (FIG. 9). This timepoint is similar to previous reports on decreases in glutathione post-radiation and was used for all experiments moving forward (Meeks L et al., Physiological Genomics, 2021, 53: 85-98).
The dose response to WR-1065 was examined to determine effective concentrations of WR-1065 to prevent the reduction of glutathione levels post-radiation. A SGm tissue chip was cultured for 4 days to allow spheres to form. The chip was then treated with WR-1065 30 minutes before and during radiation, followed by drug wash out with media 30 minutes post-radiation (FIG. 2A). This dosing scheme is consistent with the use of Amifostine clinically and with previous work. The glutathione assay was performed at 4 days post-radiation (FIG. 2A). […] Moreover, it is clinically relevant as 15-30 minutes before radiation, patients are administered Amifostine intravenously at 200 mg/m (Escobar A et al., IntechOpen, 2019, pp. 15-37; Eisbruch A, J Clin Oncol, 2011, 29: 119-121; Bardet, E. et al. Semin Oncol, 2002, 29, 57-60). Assuming an average adult body surface area of 17,000 cm^2 and a blood volume of 1.35 gallons (5.1 liters), Amifostine is administered at 300 μM (Mosteller, R. D. N Engl J Med 317, 1098 (1987)).
The glutathione and senescence assays were used to screen a library of FDA-approved drugs (Selleck Chemicals) at 100 μM. Drugs were first screened using the glutathione assay according to the timeline depicted in FIG. 2A. Any compound resulting in statistically similar glutathione levels compared to 0 Gy control was considered a hit (FIG. 4, grey circles). Hits with the glutathione assay were then tested with the senescence assay and considered a “double hit” if senescence levels were statistically similar to levels at 0 Gy (FIG. 4, black circles). […] While this hit rate is higher than many other drug screening reports (0.1-0.3%), this may be due to the statistical rigor afforded by the tissue chip format (Blanchard, C et al., Antimicrob Agents Chemother 2016, 60, 862-872; Colquhoun, J. M et al., Antibiotics (Basel) 2019, 8, 48). Additionally, phenotypic screens generally have higher hit rates than target-based screens (>1%) (Moffat, J. G et al., Nature Reviews Drug Discovery 2017, 16, 531-543; Rottman, M et al., Science 2010, 329, 1175-1180).
Mice were euthanized and the submandibular glands (SMG) were removed and chopped with a razor blade for 5 min. The tissue was then incubated in Hank's buffered salt solution (HBSS) containing 15 mM HEPES, 50 U/mL collagenase type II (Thermo Fischer 17101015), and 100 U/mL hyaluronidase (Sigma Aldrich H3506) at 37 °C for 30 min. Cells were centrifuged, then resuspended in HBSS with 15 mM HEPES and passed through 100 μm and 20 μm mesh filters to isolate clusters between 20-100 μm. The digestion protocol produces cell cluster sizes evenly distributed between 20 to 100 μm (Song, Y et al., Advanced Healthcare Materials). […]

Setting [3] is: Mus musculus, light or radiation study, 120 h, read-out: reduction in senescence.
[4] abbreviates: nonlinear fit in Prism of dose response curves, 15 Gy.

Structures can show the parent of a compound that is named as a salt. Where two headings read alike, the source gives them in different places.

Take `CC(C(=O)[O-])c1cccc(Oc2ccccc2)c1.CC(C(=O)[O-])c1cccc(Oc2ccccc2)c1.[Ca+2]` (stereo not drawn) [Fenoprofen calcium]: the “Senescence normalized mean intensity” value in assay [1] (15 Gy) was 1.472. In assay [2] (15 Gy, 4 days post-radiation), the “Glutathione normalized mean intensity” value was 0.9731.

As for `Cc1cnc(C(=O)O)c[n+]1[O-]` [Acipimox], the “Senescence normalized mean intensity” value in assay [1] (15 Gy) is 1.379. Also, the “Glutathione normalized mean intensity” value in assay [2] (15 Gy, 4 days post-radiation) was determined as 1.03.

As to `CC(=O)N[C@@H](CS)C(=O)O` [N-acetylcysteine], in assay [1] (10 mM), the “protection against radiation-induced senescence” value is recorded as “protective”. For the same molecule, in assay [1] (Mus musculus, light or radiation study, 120 h, 1 mM, versus untreated, irradiated controls, read-out: reduction in senescence), the inhibition at 1000 µM is 83%. Further, the inhibition at 4000 µM in assay [1] (Mus musculus, light or radiation study, 120 h, 4 mM, versus untreated, irradiated controls, read-out: reduction in senescence) is 57%. Also, the inhibition at 10000 µM in assay [1] (Mus musculus, light or radiation study, 120 h, 10 mM, versus untreated, irradiated controls, read-out: reduction in senescence) was determined as 82%. In addition, the “prevention of radiation-induced reduction of glutathione levels” value in assay [2] (1 mM, 15 Gy, 4 days post-radiation) is listed as “no improvement in glutathione levels”; in assay [2] (4 mM, 15 Gy, 4 days post-radiation), “no improvement in glutathione levels”. Also, in assay [2] (10 mM), the “radioprotection using the glutathione assay” value was “partial radioprotection”. For the same molecule, in assay [2] (10 mM, 15 Gy), the glutathione levels rescued was 56%.

As to `CC1(C)CC(O)CC(C)(C)N1[O]` [Tempol, 4-hydroxy-TEMPO], in assay [1], the “Senescence (radioprotection)” value is reported as “+”. Also, in assay [1] (setting [3]), the inhibition at 1000 µM came to 75% and the inhibition at 4000 µM was found to be 91%. In addition, in assay [2], the “Glutathione (radioprotection)” value is on record as “+” and the “prevention of radiation-induced reduction of glutathione levels” value is recorded as “strong radioprotection”.

For `CO[C@H]1/C=C/O[C@@]2(C)Oc3c(C)c(O)c4c(O)c(c(/C=N/N5CCN(C)CC5)c(O)c4c3C2=O)NC(=O)/C(C)=C\C=C\[C@H](C)[C@H](O)[C@@H](C)[C@@H](O)[C@@H](C)[C@H](OC(C)=O)[C@@H]1C` [Rifampin], in assay [1], the “double hit in the drug screen” value was “double hits”.

On to `COC(=O)Nc1nc2cc(C(=O)c3ccc(F)cc3)ccc2[nH]1` [Flubendazole (Flutelmium)], for which, in assay [1] (15 Gy), the “Senescence normalized mean intensity” value was determined as 1.444. Also, the “Glutathione normalized mean intensity” value in assay [2] (15 Gy, 4 days post-radiation) came to 1.065.

Consider `CN(C)CCC(c1ccc(Cl)cc1)c1ccccn1` (stereo not drawn) [Chlorpheniramine Maleate], for which the “Senescence normalized mean intensity” value in assay [1] (15 Gy) is recorded as 1.308. Moreover, the “Glutathione normalized mean intensity” value in assay [2] (15 Gy, 4 days post-radiation) was found to be 1.145.

With `CN1CCC[C@@H]1CCO[C@](C)(c1ccccc1)c1ccc(Cl)cc1` [Clemastine Fumarate], the “Senescence normalized mean intensity” value in assay [1] (15 Gy) is recorded as 1.237. Besides, the “Glutathione normalized mean intensity” value in assay [2] (15 Gy, 4 days post-radiation) is reported as 1.106.

As to `O=C(Nc1cccc2c(=O)cc(-c3nnn[nH]3)oc12)c1ccc(OCCCCc2ccccc2)cc1` [Pranlukast], the “Senescence normalized mean intensity” value in assay [1] (15 Gy) turned out to be 1.394. The “Glutathione normalized mean intensity” value in assay [2] (15 Gy, 4 days post-radiation) is on record as 0.9284.

Take `CCOC(=O)C(C)(C)Oc1ccc(Cl)cc1` [Clofibrate (Atromid-S)]: the “Senescence normalized mean intensity” value in assay [1] (15 Gy) turned out to be 1.714. Further, the “Glutathione normalized mean intensity” value in assay [2] (15 Gy, 4 days post-radiation) came to 1.009.

Turning to `O=NN(CCCl)C(=O)NC1CCCCC1` [Lomustine (CeeNU)], the “Senescence normalized mean intensity” value in assay [1] (15 Gy) turned out to be 1.023. In addition, the “Glutathione normalized mean intensity” value in assay [2] (15 Gy, 4 days post-radiation) came out at 0.9042.

With `C[C@]12C=CC(=O)C=C1CC[C@H]1[C@@H]3C[C@@H](O)[C@](O)(C(=O)CO)[C@@]3(C)C[C@H](O)[C@@]12F` [Triamcinolone (Aristocort)], the “Senescence normalized mean intensity” value in assay [1] (15 Gy) was 0.9883. Besides, the “Glutathione normalized mean intensity” value in assay [2] (15 Gy, 4 days post-radiation) was 1.061.

Regarding `CC/C(=C(/CC)c1ccc(O)cc1)c1ccc(O)cc1` [Diethylstilbestrol (Stilbestrol)], in assay [1] (dose response, 15 Gy), the “concentration range of radioprotection, senescence assay” value lay in the range of 50 to 100 µM. In assay [1] (setting [4]), the “Estimated EC50, Senescence” value is 37.7 µM. The “Senescence normalized mean intensity” value in assay [1] (15 Gy) is reported as 0.8812. Also, in assay [2] (dose response, 15 Gy), the “concentration range of radioprotection, glutathione assay” value lay in the range of 10 to 100 µM. Also, the “Glutathione normalized mean intensity” value in assay [2] (15 Gy, 4 days post-radiation) stood at 0.8894. In assay [2] (setting [4]), the “Estimated EC50, Glutathione” value is 0.7 µM.

`COc1cc(/C=C/C(=O)CC(=O)/C=C/c2ccc(O)c(OC)c2)ccc1O` [Curcumin]: the “Senescence normalized mean intensity” value in assay [1] (15 Gy) stood at 0.8098. Besides, the “Glutathione normalized mean intensity” value in assay [2] (15 Gy, 4 days post-radiation) came out at 0.9059.

On to `COc1ccccc1OCCNCC(O)COc1cccc2[nH]c3ccccc3c12` (stereo not drawn) [Carvedilol], for which, in assay [1] (15 Gy), the “Senescence normalized mean intensity” value was 1.255. Further, the “Glutathione normalized mean intensity” value in assay [2] (15 Gy, 4 days post-radiation) is 0.9878.

As for `CO[C@H]1/C=C/O[C@@]2(C)Oc3c(C)c(O)c4c(c3C2=O)C2=NC3(CCN(CC(C)C)CC3)NC2=C(NC(=O)/C(C)=C\C=C\[C@H](C)[C@H](O)[C@@H](C)[C@@H](O)[C@@H](C)[C@H](OC(C)=O)[C@@H]1C)C4=O` [Rifabutin (Mycobutin)], the “double hit in the drug screen” value in assay [1] is given as “double hits”.

With `C[C@H](CCC(=O)O)[C@H]1CC[C@H]2[C@@H]3[C@H](O)C[C@@H]4C[C@H](O)CC[C@]4(C)[C@H]3CC[C@]12C` [Chenodeoxycholic acid], the “Senescence normalized mean intensity” value in assay [1] (15 Gy) was 1.45. Besides, the “Glutathione normalized mean intensity” value in assay [2] (15 Gy, 4 days post-radiation) came to 1.11.
